A short description of data set [1]: Dicarboxylic acid remaining in solution while the HCl-acidified magnesium dicarboxylate solution is cooled (precipitation). It counts as physicochemical. As to the method: Magnesium hydroxide was added to a solution of dicarboxylic acid in water and heated up to complete dissolution. Four different carboxylic acids were used: adipic acid, fumaric acid, itaconic acid and 2,5-furandicarboxylic acid. The resulting dicarboxylate solution was meant to resemble a magnesium dicarboxylate solution obtained in a fermentation process. Although a magnesium dicarboxylate solution obtained in a fermentation process generally comprises compounds other than magnesium dicarbooxylate, such as a relatively large amount of impurities, the magnesium dicarboxylate solution prepared for this example was considered to sufficiently resemble a magnesium dicarboxylate solution obtained in a fermentation process to show the proof of principle that the invention works.
A certain amount of an aqueous solution of HCl was added to the magnesium dicarboxylate solution from Example 1, as indicated in Table 2. […] During cooling, samples were taken of the solution for each 10±1 centigrade.
The amount of crystal produced was calculated as difference between the initial dicarboxylic mass and the remaining dicarboxylic mass in solution.

The conditions of data set [2]: water at 20° C.; cited from earlier work.
How the values of data set [3] were obtained:
An amount of 333 g aqueous solution of HCl (37 wt. % wt %) was added to the thus prepared magnesium succinate solution. […] During cooling, samples were taken of the solution and the precipitate of the mixture at 62, 52, 40, 31 and 20° C. The composition of the samples and the total amount of precipitate formed were determined.
The samples were taken only from the solution (for sampling, stirrer was stopped some few seconds, and after crystal settling, a sample was taken from the supernatant).

The procedure of data set [4]:
The solution was then cooled from 115° C. to 20° C. […] The precipitate was separated from the solution by filtration using a standard gravity filter.
This is another data set of the same source.

Setting [5] is: 20 ° C., MgCl2 solution, over precipitate.
The mark [6] stands for this setting: 30 ° C., MgCl2 solution, over precipitate.
Where [7] appears, read: 40 ° C., MgCl2 solution, over precipitate.
The mark [8] stands for this setting: 50 ° C., MgCl2 solution, over precipitate.
Setting [9] is: 60 ° C., MgCl2 solution after HCl acidulation, no precipitate yet.

Like-named read-outs stand apart in the source and are kept apart here.

Take `O=C(O)c1ccc(C(=O)O)o1` [2,5-Furandicarboxylic Acid, 2,5-furandicarboxylic acid]: the “2,5-Furandicarboxylic Acid concentration in the solution” value was 0.06% in data set [1] (22 ° C., MgCl2 solution, over precipitate); 0.14% in data set [1] (32 ° C., MgCl2 solution, over precipitate); 0.33% in data set [1] (42 ° C., MgCl2 solution, over precipitate); 0.25% in data set [1] (53 ° C., MgCl2 solution, over precipitate); 0.38% in data set [1] (62 ° C., MgCl2 solution, over precipitate); 0.19% in data set [1] (72 ° C., MgCl2 solution, over precipitate). For the same compound, the “2,5-Furandicarboxylic Acid concentration in the solution” value in data set [1] (84 ° C., MgCl2 solution, over precipitate) was found to be 0.52%.
Consider `O=C(O)CCCCC(=O)O` [Adipic Acid, adipic acid], for which the “Adipic Acid concentration in the solution” value in data set [1] (setting [5]) is 0.7 wt %; in data set [1] (setting [6]), 1.2 wt %; in data set [1] (setting [7]), 2 wt %; in data set [1] (51 ° C., MgCl2 solution, over precipitate), 3.5 wt %; in data set [1] (60 ° C., MgCl2 solution, over precipitate), 6.1 wt %; in data set [1] (70 ° C., MgCl2 solution, over precipitate), 11.5 wt %. For the same compound, the “Adipic Acid concentration in the solution” value in data set [1] (81 ° C., MgCl2 solution after HCl acidulation, no precipitate yet) is on record as 14.2 wt %.
For the compound `O=C(O)/C=C/C(=O)O` [Fumaric Acid, fumaric acid], the “Fumaric Acid concentration in the solution” value was 0.5 wt % in data set [1] (setting [5]); 0.5 wt % in data set [1] (setting [6]); 0.7 wt % in data set [1] (39 ° C., MgCl2 solution, over precipitate); 1.1 wt % in data set [1] (setting [8]); 1.6 wt % in data set [1] (setting [9]).
`C=C(CC(=O)O)C(=O)O` [Itaconic Acid, itaconic acid]: the “Itaconic Acid concentration in the solution” value in data set [1] (setting [5]) turned out to be 2.6 wt %; in data set [1] (setting [6]), 4.1 wt %; in data set [1] (41 ° C., MgCl2 solution, over precipitate), 6.0 wt %; in data set [1] (setting [8]), 9.4 wt %; in data set [1] (setting [9]), 13.2 wt %.
As to `[Cl-].[Cl-].[Mg+2]` [MgCl2, magnesium chloride], in data set [2], the “saturation point in water” value is listed as 55 g/100 g water.
For `O=C(O)CCC(=O)O` [Succinic Acid, succinic acid], the “Succinic Acid concentration in the solution” value in data set [3] (setting [5]) is 2.10 wt. %; in data set [3] (31 ° C., MgCl2 solution, over precipitate) it was 3.40 wt. %; in data set [3] (setting [7]) it was 5.00 wt. %; in data set [3] (52 ° C., MgCl2 solution, over precipitate), 8.20 wt. %; in data set [3] (62 ° C., MgCl2 solution after HCl acidulation, no precipitate yet) it was 13.13 wt. %. In addition, the “succinic acid present in the filtrate” value in data set [4] (HPLC, filtrate after cooling from 115° C. to 20° C., 31.7 wt. % magnesium chloride) stood at 0.22 wt. %. Moreover, the “Content succínic, Solution” value in data set [4] (solution after cooling to 20° C. and filtration, concentrated to 31.7 wt. % magnesium chloride) is on record as 0.22%.

(Values after US10508069B2, “Acid/salt separation” (PURAC BIOCHEM B.V., priority 2011, dated 2019).)
